Earlier results as cited in patent US10584074B2, “Microencapsulated nitrification inhibitor compositions” (Dow AgroSciences LLC, priority 2017, dated 2020).

Conditions: at 23° Celsius

For `Clc1cccc(C(Cl)(Cl)Cl)n1` [nitrapyrin, 2-chloro-6-(trichloromethyl)pyridine], the vapor pressure is given as 2.8×10^−3 mm Hg.
